Results reported in PubChem BioAssay (NCI).
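Test compounds were applied to cells in 96-well plates for 48 hours at 5 doses. GI50: concentration for 50% inhibition of growth. TGI marks complete inhibition of growth.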

Tests used:
Assay in all cases: NCI tumour cell line growth inhibition, 48 h
T-47D breast = system: T-47D breast
SR leukemia = system: SR leukemia
MOLT-4 leukemia = system: MOLT-4 leukemia
A498 renal = system: A498 renal
MCF7 breast = system: MCF7 breast
U251 CNS = system: U251 CNS
A549 NSCLC = system: A549 NSCLC
HOP-62 NSCLC = system: HOP-62 NSCLC
CCRF-CEM leukemia = system: CCRF-CEM leukemia
MDA-MB-435 = system: MDA-MB-435
786-0 renal = system: 786-0 renal
HT29 colon = system: HT29 colon
RPMI-8226 leukemia = system: RPMI-8226 leukemia
SF-268 CNS = system: SF-268 CNS
TK-10 renal = system: TK-10 renal
NCI/ADR-RES ovarian = system: NCI/ADR-RES ovarian
HCT-116 colon = system: HCT-116 colon
OVCAR-5 ovarian = system: OVCAR-5 ovarian
SNB-19 CNS = system: SNB-19 CNS
SK-OV-3 ovarian = system: SK-OV-3 ovarian
SK-MEL-2 melanoma = system: SK-MEL-2 melanoma
ACHN renal = system: ACHN renal
HL-60(TB) leukemia = system: HL-60(TB) leukemia
OVCAR-3 ovarian = system: OVCAR-3 ovarian
KM12 colon = system: KM12 colon
HS 578T breast = system: HS 578T breast
LOX IMVI melanoma = system: LOX IMVI melanoma
NCI-H23 lung = system: NCI-H23 lung
BT-549 breast = system: BT-549 breast
K-562 leukemia = system: K-562 leukemia
OVCAR-4 ovarian = system: OVCAR-4 ovarian
SF-539 CNS = system: SF-539 CNS
SK-MEL-28 melanoma = system: SK-MEL-28 melanoma
COLO 205 colon = system: COLO 205 colon
HCT-15 colon = system: HCT-15 colon
SN12C renal = system: SN12C renal
NCI-H226 lung = system: NCI-H226 lung
SNB-75 CNS = system: SNB-75 CNS
M14 melanoma = system: M14 melanoma
DU-145 prostate = system: DU-145 prostate
NCI-H460 lung = system: NCI-H460 lung
MDA-MB-231 breast = system: MDA-MB-231 breast
SW-620 colon = system: SW-620 colon
HOP-92 NSCLC = system: HOP-92 NSCLC
SK-MEL-5 melanoma = system: SK-MEL-5 melanoma
HCC-2998 colon = system: HCC-2998 colon
CAKI-1 renal = system: CAKI-1 renal
PC-3 prostate = system: PC-3 prostate
MALME-3M melanoma = system: MALME-3M melanoma
OVCAR-8 ovarian = system: OVCAR-8 ovarian
SF-295 CNS = system: SF-295 CNS
IGROV1 ovarian = system: IGROV1 ovarian
EKVX NSCLC = system: EKVX NSCLC
NCI-H522 lung = system: NCI-H522 lung
UACC-62 melanoma = system: UACC-62 melanoma
UACC-257 melanoma = system: UACC-257 melanoma
UO-31 renal = system: UO-31 renal

## Cc1nc(N)sc1-c1csc(Nc2ccc(C(F)(F)F)cc2)n1
T-47D breast
  GI50: 1.65 µM
  TGI: 10.1 µM
SR leukemia
  GI50: 3.6 µM
  TGI: 24.2 µM
MOLT-4 leukemia
  GI50: 2.71 µM
  TGI: 21.1 µM
A498 renal
  GI50: 11.9 µM
  TGI: 25.1 µM
MCF7 breast
  GI50: 2.65 µM
  TGI: 16 µM
U251 CNS
  GI50: 7.17 µM
  TGI: 26.2 µM
A549 NSCLC
  GI50: 7.34 µM
  TGI: 35.8 µM
HOP-62 NSCLC
  GI50: 7.86 µM
  TGI: 26.4 µM
CCRF-CEM leukemia
  GI50: 3.22 µM
  TGI: 53 µM
MDA-MB-435
  GI50: 4.43 µM
  TGI: 17.4 µM
786-0 renal
  GI50: 4.41 µM
  TGI: 17.5 µM
HT29 colon
  GI50: 2.49 µM
  TGI: 7.09 µM
RPMI-8226 leukemia
  GI50: 3.98 µM
  TGI: 72.3 µM
SF-268 CNS
  GI50: 6.75 µM
  TGI: 22.6 µM
TK-10 renal
  GI50: 8.73 µM
  TGI: 21.4 µM
NCI/ADR-RES ovarian
  GI50: 5.36 µM
  TGI: 21 µM
HCT-116 colon
  GI50: 3.36 µM
  TGI: 16 µM
OVCAR-5 ovarian
  GI50: 4.42 µM
  TGI: 18.9 µM
SNB-19 CNS
  GI50: 11.9 µM
  TGI: 24.8 µM
SK-OV-3 ovarian
  GI50: 16.4 µM
  TGI: 33.4 µM
SK-MEL-2 melanoma
  GI50: 1.76 µM
  TGI: 16.4 µM
ACHN renal
  GI50: 2.75 µM
  TGI: 13.9 µM
HL-60(TB) leukemia
  GI50: 13.2 µM
  TGI: 32.2 µM
OVCAR-3 ovarian
  GI50: 4.41 µM
  TGI: 17.3 µM
KM12 colon
  GI50: 3.55 µM
  TGI: 14.5 µM
HS 578T breast
  GI50: 2.84 µM
  TGI: 23.6 µM
LOX IMVI melanoma
  GI50: 2.44 µM
  TGI: 9.9 µM
NCI-H23 lung
  GI50: 5.57 µM
  TGI: 21.7 µM
BT-549 breast
  GI50: 2.03 µM
  TGI: 6.75 µM
K-562 leukemia
  GI50: 3.27 µM
  TGI: 31 µM
OVCAR-4 ovarian
  GI50: 3.63 µM
  TGI: 16.7 µM
SF-539 CNS
  GI50: 6.69 µM
  TGI: 20 µM
SK-MEL-28 melanoma
  GI50: 10.2 µM
  TGI: 21.9 µM
COLO 205 colon
  GI50: 11.9 µM
  TGI: 36.9 µM
HCT-15 colon
  GI50: 3.02 µM
  TGI: 11.9 µM
SN12C renal
  GI50: 6.72 µM
  TGI: 21 µM
NCI-H226 lung
  GI50: 2.72 µM
  TGI: 24.3 µM
SNB-75 CNS
  GI50: 3.41 µM
  TGI: 16.9 µM
M14 melanoma
  GI50: 3.25 µM
  TGI: 14.8 µM
DU-145 prostate
  GI50: 4.59 µM
  TGI: 17.7 µM
NCI-H460 lung
  GI50: 3.44 µM
  TGI: 15.7 µM
MDA-MB-231 breast
  GI50: 3.45 µM
  TGI: 17.5 µM
SW-620 colon
  GI50: 4.92 µM
  TGI: 19.5 µM
HOP-92 NSCLC
  GI50: 2.63 µM
  TGI: 15 µM
SK-MEL-5 melanoma
  GI50: 3.32 µM
  TGI: 11.9 µM
HCC-2998 colon
  GI50: 4.66 µM
  TGI: 17.3 µM
CAKI-1 renal
  GI50: 3.62 µM
  TGI: 17.5 µM
PC-3 prostate
  GI50: 4.12 µM
  TGI: 22.2 µM
MALME-3M melanoma
  GI50: 4.11 µM
  TGI: 17.6 µM
OVCAR-8 ovarian
  GI50: 11.1 µM
  TGI: 25.6 µM
SF-295 CNS
  GI50: 3.08 µM
  TGI: 15.1 µM
IGROV1 ovarian
  GI50: 2.01 µM
  TGI: 14.7 µM
EKVX NSCLC
  GI50: 3.83 µM
  TGI: 17.6 µM
NCI-H522 lung
  GI50: 4.75 µM
  TGI: 18.7 µM
UACC-62 melanoma
  GI50: 8.61 µM
  TGI: 21 µM
UACC-257 melanoma
  GI50: 9.37 µM
  TGI: 22.1 µM

## C#C[C@]1(O)CC[C@H]2[C@@H]3CC=C4c5sc(Nc6cc(OC)ccc6OC)nc5CC[C@]4(C)[C@H]3CC[C@@]21C
T-47D breast
  GI50: 3.04 µM
  TGI: > 100 µM
SR leukemia
  GI50: 0.306 µM
  TGI: 24.8 µM
MOLT-4 leukemia
  GI50: 0.367 µM
  TGI: 16.2 µM
A498 renal
  GI50: 0.429 µM
  TGI: 4.62 µM
MCF7 breast
  GI50: 0.454 µM
  TGI: 1.74 µM
U251 CNS
  GI50: 0.643 µM
  TGI: 13.3 µM
A549 NSCLC
  GI50: 3.1 µM
  TGI: 95.7 µM
HOP-62 NSCLC
  GI50: 1.96 µM
  TGI: 47.9 µM
CCRF-CEM leukemia
  GI50: 0.619 µM
  TGI: > 100 µM
MDA-MB-435
  GI50: 2.79 µM
  TGI: 19.2 µM
786-0 renal
  GI50: 0.392 µM
  TGI: 5.08 µM
HT29 colon
  GI50: 1.8 µM
  TGI: > 100 µM
RPMI-8226 leukemia
  GI50: 0.193 µM
  TGI: 0.694 µM
SF-268 CNS
  GI50: 3.55 µM
  TGI: 33 µM
TK-10 renal
  GI50: 4.15 µM
  TGI: 27.5 µM
NCI/ADR-RES ovarian
  GI50: 3.11 µM
  TGI: > 100 µM
HCT-116 colon
  GI50: 1.12 µM
  TGI: 2.77 µM
OVCAR-5 ovarian
  GI50: 4.14 µM
  TGI: 25.7 µM
SNB-19 CNS
  GI50: 3.63 µM
  TGI: 24.3 µM
SK-OV-3 ovarian
  GI50: 1.08 µM
  TGI: 4.37 µM
SK-MEL-2 melanoma
  GI50: 2.28 µM
  TGI: 42.1 µM
ACHN renal
  GI50: 1.9 µM
  TGI: 16.5 µM
HL-60(TB) leukemia
  GI50: 0.646 µM
  TGI: 4.07 µM
OVCAR-3 ovarian
  GI50: 2.39 µM
  TGI: 9.14 µM
KM12 colon
  GI50: 2.33 µM
  TGI: 11 µM
HS 578T breast
  GI50: 0.202 µM
  TGI: 0.597 µM
UO-31 renal
  GI50: 1.41 µM
  TGI: 12.9 µM
NCI-H23 lung
  GI50: 2.49 µM
  TGI: 28.3 µM
BT-549 breast
  GI50: 0.61 µM
  TGI: 7.03 µM
K-562 leukemia
  GI50: 0.553 µM
  TGI: > 100 µM
OVCAR-4 ovarian
  GI50: 4.46 µM
  TGI: > 100 µM
SF-539 CNS
  GI50: 0.449 µM
  TGI: 1.68 µM
SK-MEL-28 melanoma
  GI50: 0.406 µM
  TGI: 5.32 µM
COLO 205 colon
  GI50: 2.43 µM
  TGI: 7.83 µM
SN12C renal
  GI50: 3.9 µM
  TGI: 32.7 µM
NCI-H226 lung
  GI50: 3.04 µM
  TGI: 20.9 µM
SNB-75 CNS
  GI50: 0.386 µM
  TGI: 13.7 µM
M14 melanoma
  GI50: 1.04 µM
  TGI: 4.08 µM
DU-145 prostate
  GI50: 1.91 µM
  TGI: 7.47 µM
NCI-H460 lung
  GI50: 2.16 µM
  TGI: 15.1 µM
MDA-MB-231 breast
  GI50: 2.36 µM
  TGI: > 100 µM
HOP-92 NSCLC
  GI50: 4.66 µM
  TGI: 74.7 µM
SK-MEL-5 melanoma
  GI50: 2.3 µM
  TGI: 5.58 µM
HCC-2998 colon
  GI50: 4.11 µM
  TGI: 23.2 µM
CAKI-1 renal
  GI50: 1.11 µM
  TGI: 4.68 µM
PC-3 prostate
  GI50: 0.627 µM
  TGI: 30 µM
MALME-3M melanoma
  GI50: 1.69 µM
  TGI: 8.76 µM
OVCAR-8 ovarian
  GI50: 2.94 µM
  TGI: > 100 µM
IGROV1 ovarian
  GI50: 2.93 µM
  TGI: 25 µM
EKVX NSCLC
  GI50: 2.86 µM
  TGI: 42.5 µM
NCI-H522 lung
  GI50: 3.9 µM
  TGI: 29.8 µM
UACC-62 melanoma
  GI50: 1.56 µM
  TGI: 9.02 µM
UACC-257 melanoma
  GI50: 1.95 µM
  TGI: 9.18 µM
